Assay in all cases: inhibition of tumour cell growth, NCI panel, 48 h
For experiment [1], the system named is IGROV1 ovarian.
In experiment [2] the test system is A549 NSCLC.
The test system of experiment [3] is SN12C renal.
For experiment [4], the system named is MOLT-4 leukemia.
Experiment [5] has as its system EKVX NSCLC.
Experiment [6] concerns TK-10 renal.
In experiment [7] the test system is HCT-15 colon.
Experiment [8] relates to SF-295 CNS.
Experiment [9] deals with NCI/ADR-RES ovarian.
In experiment [10] the test system is A498 renal.

Molecules are shown by their SMILES.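 Five concentrations, 48 hours, 96-well plates. TGI is the concentration that stops growth completely.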

In PubChem BioAssay (NCI) one finds TGI data, which are given here for 13 compounds.

Consider `CC1=NNC(=O)[C@H]2[C@H]1CCC1[C@@H]2CC[C@]2(C)[C@@H](O)CC[C@@H]12` (stereo not given in full), for which the TGI in experiment [1], in [2], in [3], in [4], in experiment [5] and in experiment [6] was above 100 µM in each case. Further, the TGI in experiment [7], in experiment [8], in experiment [9] and in experiment [10] was above 100 µM in each case.

In the case of `Cc1cc2c3c(c1)CCCN3CCC2`, the TGI in experiment [1], in experiment [2], in [3], in experiment [4], in [5] and in experiment [6] was above 10 µM each time. Moreover, the TGI in [7], in experiment [8], in [9] and in experiment [10] was above 10 µM throughout.

Turning to `CCCCOc1ccc(S(=O)(=O)/N=C(\N)Nc2ccc(Cl)cc2)cc1`, the TGI in experiment [1] was determined as 28.9 µM; in experiment [2] it was 45.8 µM; in [3], 30.1 µM; in experiment [4] it was 29.9 µM; in experiment [5], 23.2 µM; in experiment [6] it was 28.1 µM. Besides, the TGI is 27.6 µM in [7], 36.1 µM in experiment [8], 31.5 µM in experiment [9] and 24.6 µM in [10].

In the case of `CN(CCCNC(=O)c1c2ccc3ccccc3c2nn1C)CCCNC(=O)c1c2ccc3ccccc3c2nn1C`, the TGI in [1] is 23.3 µM; in experiment [2], 26.9 µM; in experiment [3], 25.6 µM; in experiment [4] it was 24 µM; in [5], 22.3 µM; in experiment [6] it was 18.1 µM. Further, the TGI in experiment [7] was 19.4 µM; in experiment [8], 9.77 µM; in [9], 29.3 µM; in experiment [10], 15.7 µM.

`CCOP(=O)(/C=C\n1ccc(=O)[nH]c1=O)OCC`: the TGI in [1], in experiment [2], in experiment [3], in [4], in experiment [5] and in experiment [6] was above 100 µM throughout. Besides, the TGI in experiment [7], in [8], in experiment [9] and in experiment [10] was above 100 µM throughout.

For the compound `CON(C)C(=O)C(C)NC(=O)OC(C)(C)C` (stereo not given), the TGI in [1], in experiment [2], in [3], in [4], in [5] and in experiment [6] was above 100 µM throughout. The TGI in experiment [7], in experiment [8], in [9] and in experiment [10] was above 100 µM each time.

Turning to `COc1ccc2c(C(=O)c3c(C)n(CCN4CCOCC4)c4ccccc34)cccc2c1`, the TGI in experiment [1], in [2], in [3], in experiment [4], in experiment [5] and in [6] was above 100 µM in each case. The TGI is above 100 µM in [7], 49 µM in [8], 55.9 µM in experiment [9] and above 100 µM in experiment [10].

In the case of `O=C1c2ccccc2/C=C\C(c2ccccc2)=N/N1c1ccccc1Cl`, the TGI is above 100 µM in [1]; 60.5 µM in experiment [2]; above 100 µM in experiment [3]; 77.1 µM in [4]; above 100 µM in [5]; above 100 µM in experiment [6]. Also, the TGI in experiment [7] is above 100 µM; in experiment [8] it was above 100 µM; in [9] it was 63.5 µM; in experiment [10], 71.9 µM.

On to `CC(N)=O.[Cl][Pt][Cl].[NH-]c1ccn(C2OC(CO)C(O)C2O)c(=O)n1` (stereo not given), for which the TGI in experiment [1], in experiment [2], in [3], in experiment [4], in experiment [5] and in [6] was above 100 µM each time. Besides, the TGI in [7], in experiment [8], in [9] and in [10] was above 100 µM each time.

`CCOP(=O)(/C=C/n1cnc2c(=O)n(C(C)=O)c(N)nc21)OCC`: the TGI in [1], in [2], in experiment [3], in experiment [4], in [5] and in [6] was above 100 µM throughout. Besides, the TGI in experiment [7], in experiment [8], in experiment [9] and in [10] was above 100 µM each time.

For `COCCOCCOCCC(=O)NC1CC2CCC1(C)C2(C)C` (stereo not given), the TGI in experiment [1], in [2], in experiment [3], in [4], in experiment [5] and in [6] was above 100 µM throughout. Further, the TGI in experiment [7], in experiment [8], in experiment [9] and in experiment [10] was above 100 µM throughout.

Regarding `CC(=O)N1c2ccccc2[C@H]2CCc3c([nH]c4ccccc34)[C@H]21`, the TGI in experiment [1] is 44.3 µM; in [2] it was 67.3 µM; in experiment [3], 27.5 µM; in experiment [4] it was 53.1 µM; in [5] it was 49 µM; in experiment [6], above 100 µM. Besides, the TGI in experiment [7] is 31.6 µM; in [8], 74.4 µM; in [9], above 100 µM; in [10], 36.2 µM.

On to `O=C([O-])C1([n+]2c(-c3ccccc3)cc(-c3ccccc3)cc2-c2ccccc2)CC1`, for which the TGI in [1], in experiment [2], in [3], in experiment [4], in experiment [5] and in [6] was above 100 µM throughout. Moreover, the TGI in experiment [7], in experiment [8], in [9] and in [10] was above 100 µM in each case.
